In US10894772B2, “Flavor modulator having pyridine derivative or salt thereof as active ingredient” (T. HASEGAWA CO., LTD., priority 2015, dated 2021):

Columns and labels:
Assay type in all cases: in vivo
panelists [1] = assay: Flavor evaluation of ethanol solution (bottle mouth and flavor paper); conditions: 1% ethanol solution, typical evaluation, 5 panelists
Method: (§1) A 1% ethanol solution of the invention products 1 to 6 prepared in Examples 1 to 6 was prepared as an evaluation solution. The evaluation solution was prepared in a sample bottle. Regarding the flavor of the sample smelling from the bottle mouth and the flavor of a flavor paper prepared by infiltrating the evaluation solution into a paper, well-trained 5 panelists tested the solution for flavor evaluation.
as §1, with “0.1%” for “1%”, “product 101 (2-(3-benzyloxypropyl)pyridine)” for “products 1 to 6”, “Example 101” for “Examples 1 to 6”, “evaluation. A typical evaluation of the product is as follows.” for “evaluation.”

panelists [2] = assay: Confirmation of umami in water (point score); conditions: average point of 10 panelists, 0 no difference from control (water), 1 somewhat stronger, 2 stronger, 3 considerably stronger, 4 poor taste balance
Method: As a comparative product, a solution was prepared by dissolving the comparative product 1 (2-(2-benzyloxyethyl)pyridine) to have the same concentration. Water with no addition was prepared as a control product. Well-trained 10 panelists tasted the solutions prepared by dissolving any the invention products 1 to 6 and the comparative product 1 for organoleptic evaluation of umami.
Umami evaluation was based on the control product of water.

panelists [3] = assay: Confirmation of umami imparting and saltiness enhancing effect in 0.3 mass % sodium chloride (point score); conditions: average point of 10 panelists vs control, 0 no change, 1 slightly higher, 2 higher, 3 considerably higher, 4 extremely higher umami and saltiness, 5 bitter as lacking balance
Method: An aqueous 0.3 mass % sodium chloride solution (control), and solutions of the invention products 1 to 6 each dissolved in a 0.3 mass % sodium chloride solution to have the concentration shown in Table 5 were prepared. As a comparative product, a solution was prepared by dissolving the comparative product 1 in 0.3 mass % sodium chloride. Well-trained 10 panelists tasted the solutions for organoleptic evaluation of umami impartment and saltiness enhancement.
Umami and saltiness scores are as follows, based on the aqueous 0.3 mass % sodium chloride solution as a control. Each sample was given any of a point 0, no change from control; 1, slightly higher umami and saltiness than control; 2, higher umami and saltiness than control; 3, considerably higher umami and saltiness than control; 4, extremely higher umami and saltiness than control; and 5, bitter as lacking balance of umami and saltiness.

[4] = 0.05 ppb in aqueous 0.3 mass % sodium chloride solution
[5] = 0.1 ppb in aqueous 0.3 mass % sodium chloride solution
[6] = 0.1 ppm in aqueous 0.3 mass % sodium chloride solution
[7] = 0.5 ppm in aqueous 0.3 mass % sodium chloride solution
[8] = 1 ppb in aqueous 0.3 mass % sodium chloride solution
[9] = 2 ppm in aqueous 0.3 mass % sodium chloride solution
[10] = 10 ppb in aqueous 0.3 mass % sodium chloride solution
[11] = 10 ppm in aqueous 0.3 mass % sodium chloride solution
[12] = 50 ppm in aqueous 0.3 mass % sodium chloride solution

SMILES | Flavor Evaluation (panelists [1]) | umami (average point) (panelists [2]; 0.1 ppm in water) | umami (average point) (panelists [2]; 1 ppm in water) | umami (average point) (panelists [2]; 2 ppb in water) | umami (average point) (panelists [2]; 10 ppb in water) | umami (average point) (panelists [2]; 20 ppm in water) | umami (average point) (panelists [2]; 200 ppm in water) | umami (average point) (panelists [2]; 500 ppm in water) | umami (average point) (panelists [2]; 2000 ppm in water) | umami and saltiness (average point) (panelists [3]; [4]) | umami and saltiness (average point) (panelists [3]; [5]) | umami and saltiness (average point) (panelists [3]; [6]) | umami and saltiness (average point) (panelists [3]; [7]) | umami and saltiness (average point) (panelists [3]; [8]) | umami and saltiness (average point) (panelists [3]; [9]) | umami and saltiness (average point) (panelists [3]; [10]) | umami and saltiness (average point) (panelists [3]; [11]) | umami and saltiness (average point) (panelists [3]; [12])
c1ccc(CCOCCc2ccccn2)cc1 [invention product 2, 2-(2-phenylethoxyethyl)pyridine] | Earthy, hyacinthine | 1.5 | 2.0 | 0.0 | 0.7 | 2.8 | 3.2 | 3.8 | 4.0 | 0.0 | 0.7 | 3.0 | 3.9 | 1.5 | 4.4 | 2.4 | 4.6 | 5.0
Cc1ccc(C)c(COCCCc2ccccn2)c1 [invention product 6, 2-[3-(2,5-dimethylbenzyloxy)propyl]pyridine] | Rummy | 1.2 | 2.0 | 0.0 | 0.5 | 2.6 | 3.0 | 3.6 | 3.9 | 0.0 | 0.5 | 2.9 | 3.5 | 1.3 | 4.1 | 2.0 | 4.6 | 4.8
c1ccc(CCSCCc2ccccn2)cc1 [invention product 4, 2-(2-phenylethylthioethyl)pyridine] | Metallic spicy savor | 1.6 | 2.2 | 0.0 | 0.7 | 3.0 | 3.6 | 3.9 | 4.0 | 0.0 | 0.6 | 3.4 | 3.8 | 1.8 | 4.5 | 2.3 | 4.8 | 5.0
Cc1ccc(COCCCc2ccccn2)cc1 [invention product 5, 2-[3-(p-methylbenzyloxy)propyl]pyridine] | Nutty | 1.4 | 2.0 | 0.0 | 0.6 | 2.7 | 3.1 | 3.6 | 3.9 | 0.0 | 0.8 | 3.0 | 3.6 | 1.5 | 4.2 | 2.2 | 4.6 | 4.8
COc1ccc(COCCCc2ccccn2)cc1 [invention product 3, 2-[3-(p-methoxybenzyloxy)propyl]pyridine] | Bitter almond | 1.4 | 2.1 | 0.0 | 0.8 | 2.8 | 3.0 | 3.6 | 3.9 | 0.0 | 0.8 | 3.3 | 3.5 | 1.6 | 4.2 | 2.6 | 4.8 | 4.9
c1ccc(COCCCCc2ccccn2)cc1 [invention product 1, 2-(4-benzyloxybutyl)pyridine] | Earthy | 1.6 | 2.3 | 0.0 | 0.8 | 2.9 | 3.4 | 3.8 | 4.0 | 0.0 | 0.8 | 3.2 | 3.7 | 1.4 | 4.3 | 2.3 | 4.7 | 4.9
